# Experimental data reported in PubChem BioAssay (NCI).
#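 48-hour exposure; five concentrations; linearly interpolated endpoints. TGI marks complete inhibition of growth.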
# What was measured:
# Experiment in all cases: DTP human tumour cell line panel, 48 h
# [1] = test system: MDA-MB-435
# [2] = test system: COLO 205 colon
# [3] = test system: SF-539 CNS
# [4] = test system: UACC-257 melanoma
# [5] = test system: HOP-92 NSCLC
# [6] = test system: OVCAR-4 ovarian
# [7] = test system: SK-MEL-5 melanoma
# [8] = test system: NCI-H522 lung
# [9] = test system: SF-295 CNS
# [10] = test system: IGROV1 ovarian
# [11] = test system: RPMI-8226 leukemia
# [12] = test system: HL-60(TB) leukemia
# [13] = test system: MDA-MB-231 breast
# [14] = test system: NCI-H460 lung
# [15] = test system: MCF7 breast
# [16] = test system: EKVX NSCLC
# [17] = test system: LOX IMVI melanoma
# [18] = test system: MDA-N
# [19] = test system: OVCAR-5 ovarian
# [20] = test system: CCRF-CEM leukemia
# [21] = test system: U251 CNS
# [22] = test system: SNB-19 CNS
# [23] = test system: PC-3 prostate
# [24] = test system: ACHN renal
# [25] = test system: HT29 colon
# [26] = test system: DU-145 prostate
# [27] = test system: NCI-H226 lung
# [28] = test system: 786-0 renal
# [29] = test system: TK-10 renal
# [30] = test system: CAKI-1 renal
# [31] = test system: HCT-116 colon
# [32] = test system: HS 578T breast
# [33] = test system: KM12 colon
# [34] = test system: A498 renal
# [35] = test system: MOLT-4 leukemia
# [36] = test system: UACC-62 melanoma
# [37] = test system: BT-549 breast
# [38] = test system: OVCAR-3 ovarian
# [39] = test system: SK-OV-3 ovarian
# [40] = test system: SK-MEL-28 melanoma
# [41] = test system: HOP-62 NSCLC
# [42] = test system: SNB-75 CNS
# [43] = test system: SR leukemia
# [44] = test system: UO-31 renal
# [45] = test system: SN12C renal
# [46] = test system: HCT-15 colon
# [47] = test system: HCC-2998 colon
# [48] = test system: SF-268 CNS
# [49] = test system: SK-MEL-2 melanoma
# [50] = test system: A549 NSCLC
# [51] = test system: NCI/ADR-RES ovarian
# [52] = test system: M14 melanoma
# [53] = test system: K-562 leukemia
# [54] = test system: OVCAR-8 ovarian
# [55] = test system: NCI-H23 lung
# [56] = test system: MALME-3M melanoma
# [57] = test system: RXF 393 renal
# [58] = test system: SW-620 colon
# [59] = test system: T-47D breast
structure (smiles),measurement,setting,value
N=[N+]=NC1C(O)C(CO)OC1n1cnc2c(N)ncnc21 (centres undefined),TGI,[1],> 100 µM
same,TGI,[2],> 100 µM
same,TGI,[3],> 76.2 µM
same,TGI,[4],> 100 µM
same,TGI,[5],> 100 µM
same,TGI,[6],> 100 µM
same,TGI,[7],> 100 µM
same,TGI,[8],> 100 µM
same,TGI,[9],> 100 µM
same,TGI,[10],> 100 µM
same,TGI,[11],> 100 µM
same,TGI,[12],6.44 µM
same,TGI,[13],> 100 µM
same,TGI,[14],> 100 µM
same,TGI,[15],> 100 µM
same,TGI,[16],> 100 µM
same,TGI,[17],> 83.5 µM
same,TGI,[18],> 100 µM
same,TGI,[19],> 100 µM
same,TGI,[20],> 29.8 µM
same,TGI,[21],> 100 µM
same,TGI,[22],> 100 µM
same,TGI,[23],> 100 µM
same,TGI,[24],52.6 µM
same,TGI,[25],> 100 µM
same,TGI,[26],> 100 µM
same,TGI,[27],97.4 µM
same,TGI,[28],> 100 µM
same,TGI,[29],> 100 µM
same,TGI,[30],> 100 µM
same,TGI,[31],> 100 µM
same,TGI,[32],> 100 µM
same,TGI,[33],> 100 µM
same,TGI,[34],> 100 µM
same,TGI,[35],> 22.4 µM
same,TGI,[36],> 100 µM
same,TGI,[37],> 100 µM
same,TGI,[38],> 100 µM
same,TGI,[39],> 100 µM
same,TGI,[40],> 100 µM
same,TGI,[41],> 100 µM
same,TGI,[42],> 100 µM
same,TGI,[43],7 µM
same,TGI,[44],> 100 µM
same,TGI,[45],> 100 µM
same,TGI,[46],> 100 µM
same,TGI,[47],> 100 µM
same,TGI,[48],> 100 µM
same,TGI,[49],> 100 µM
same,TGI,[50],> 100 µM
same,TGI,[51],> 100 µM
same,TGI,[52],> 100 µM
same,TGI,[53],> 100 µM
same,TGI,[54],> 100 µM
same,TGI,[55],> 80 µM
same,TGI,[56],> 100 µM
same,TGI,[57],> 100 µM
same,TGI,[58],> 100 µM
same,TGI,[59],> 100 µM
